Among the data in patent US20230391748A1, “BICYCLIC INHIBITORS OF IRAK” (priority 2022, published 2023) are IC50 values, retold here.

Test [1] addresses IRAK4 (Homo sapiens (Human), UniProt Q9NWZ3). The test can be described thus: IRAK4 ADP-Glo Assay. The following applies: MBP substrate. Format: biochemical. An outline of the steps: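 Human IRAK4 kinase reaction with MBP substrate plus ATP in Tris-HCl/MgCl2/BSA/DTT buffer, pH 7.4, run 60 min at room temperature or 30 min at 30 °C. ADP formed was measured by ADP-Glo luminescence after ATP depletion (40 min) and detection reagent (30 min).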
In general terms: ADP-Glo first removes unused ATP, then detects ADP through luciferase.

Test [2] deals with IL23p19 in THP-1 Cells. In words: LPS Induced IL23p19 in THP-1 Cells (with IFNγ Primed) Assay. Format: cell-based. The following applies: Homo sapiens, THP-1, 18 h, read-out: IL23 (THP, LPS) (IC50, μM). In a few lines: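 THP-1 cells (50K/well) primed with IFNγ (50 ng/mL) about 18 h, then given compound and stimulated with LPS for 18 h at 37 °C. Secreted IL-23p19 measured by sandwich ELISA with chemiluminescent read-out, giving EC50. Cell Titer Glo used on the remaining cells for toxicity.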

Test [3] concerns TNF-α in human PBMCs. In words: R848-induced TNF-α in human PBMCs Assay. It counts as cell-based. Particulars: Homo sapiens, PBMC, 4 h, read-out: TNFα (PBMC, R848) (IC50, μM). An outline of the steps: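 Human PBMCs at 200K/well were pretreated with compound, then R848-stimulated for 4 h at 37 °C, 5% CO2. Supernatant TNF-α quantified by chemiluminescent ELISA; EC50 from curve fitting.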

Test [4] deals with TNF-α in Human Primary Monocyte-Derived Dendritic Cells. In words: Gardiquimod-Induced TNF-α in Human Primary Monocyte-Derived Dendritic Cells. It counts as cell-based. The following applies: Dendritic cell, IFNγ-primed monocyte-derived dendritic cells, 4 μg/ml Gardiquimod, 6 hours, TNF-α ELISA, read-out: TNFα (DC, GARD) (IC50). In a few lines:
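Monocytes differentiated 7 days with GM-CSF and IL-4, then primed 24 h with 50 ng/ml IFN-γ. Compound added 1 h before 6 h stimulation with 4 μg/ml Gardiquimod, 0.5% DMSO final. Supernatant TNF-α measured by chemiluminescent ELISA; EC50 from curve fitting.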
Background: An ELISA detects its analyte on a solid surface through an enzyme-linked reagent.

IRAK4, sequence (Q9NWZ3 whole entry): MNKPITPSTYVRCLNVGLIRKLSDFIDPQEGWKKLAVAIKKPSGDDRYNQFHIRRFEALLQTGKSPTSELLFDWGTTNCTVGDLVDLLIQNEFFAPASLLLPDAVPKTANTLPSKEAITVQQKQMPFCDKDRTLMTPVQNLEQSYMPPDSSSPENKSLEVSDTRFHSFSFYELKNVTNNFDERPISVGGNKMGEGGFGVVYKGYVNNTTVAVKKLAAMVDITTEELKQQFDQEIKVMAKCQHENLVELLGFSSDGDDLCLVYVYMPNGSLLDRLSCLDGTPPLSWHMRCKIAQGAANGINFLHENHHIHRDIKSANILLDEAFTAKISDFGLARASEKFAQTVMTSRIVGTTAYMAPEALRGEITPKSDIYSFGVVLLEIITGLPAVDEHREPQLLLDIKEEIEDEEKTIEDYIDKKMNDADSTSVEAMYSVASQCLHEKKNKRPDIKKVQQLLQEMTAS

Usually IC50 stands for the point on the concentration scale where inhibition reaches its midpoint. In the case of `CC(C)Oc1cc2c(OC[C@@H]3CCC(=O)N3)ncc(-c3cn[nH]c3)c2cc1C(N)=O` [Compound I-47, (S)-7-isopropoxy-1-((5-oxopyrrolidin-2-yl)methoxy)-4-(1H-pyrazol-4-yl)isoquinoline-6-carboxamide], the IC50 came to 0.0076 µM in test [1], 2.73 µM in test [2], 0.816 µM in test [3] and 1.87 µM in test [4].

Take `CC(C)Oc1cc2c(OC[C@@H]3CC(F)(F)C(=O)N3)ncc(C#CC3(O)CCCC3)c2cc1C(N)=O` [Compound I-48, (S)-1-((4,4-difluoro-5-oxopyrrolidin-2-yl)methoxy)-4-((1-hydroxycyclopentyl)ethynyl)-7-isopropoxyisoquinoline-6-carboxamide]: the IC50 in test [1] was determined as 0.0044 µM; in test [2], 0.165 µM; in test [3] it was 0.0569 µM; in test [4], 0.12 µM.

Consider `CC(C)Oc1cc2c(OC[C@@H]3CC(F)(F)C(=O)N3)ncc(C#CC3CCOCC3)c2cc1C(N)=O` [Compound I-49, (S)-1-((4,4-difluoro-5-oxopyrrolidin-2-yl)methoxy)-7-isopropoxy-4-((tetrahydro-2H-pyran-4-yl)ethynyl)isoquinoline-6-carboxamide], for which the IC50 was determined as 0.0076 µM in test [1], 0.273 µM in test [2], 0.0853 µM in test [3] and 0.0737 µM in test [4].

With `CC(C)Oc1cc2c(OC[C@@H]3CC(F)(F)C(=O)N3)ncc(C#CCC3CCOCC3)c2cc1C(N)=O` [Compound I-50, (S)-1-((4,4-difluoro-5-oxopyrrolidin-2-yl)methoxy)-7-isopropoxy-4-(3-(tetrahydro-2H-pyran-4-yl)prop-1-yn-1-yl)isoquinoline-6-carboxamide], the IC50 in test [1] came out at 0.0048 µM; in test [2] it was 1.62 µM; in test [3], 0.115 µM; in test [4], 0.23 µM.

Regarding `CC(C)Oc1cc2c(OC[C@@H]3CC(F)(F)C(=O)N3)ncc(C#CC3(O)CCOCC3)c2cc1C(N)=O` [Compound I-51, (S)-1-((4,4-difluoro-5-oxopyrrolidin-2-yl)methoxy)-4-((4-hydroxytetrahydro-2H-pyran-4-yl)ethynyl)-7-isopropoxyisoquinoline-6-carboxamide], the IC50 in test [1] was 0.0053 µM; in test [2], 1.27 µM; in test [3], 0.391 µM; in test [4], 1.03 µM.

Consider `CC(C)Oc1cc2c(OC[C@@H]3CC(F)(F)C(=O)N3)ncc(C#CC3(O)CCNCC3)c2cc1C(N)=O` [Compound I-53, (S)-1-((4,4-difluoro-5-oxopyrrolidin-2-yl)methoxy)-4-((4-hydroxypiperidin-4-yl)ethynyl)-7-isopropoxyisoquinoline-6-carboxamide], for which the IC50 was determined as 0.0063 µM in test [1], 11 µM in test [2], 3.06 µM in test [3] and 14.2 µM in test [4].

In the case of `CC(C)Oc1cc2c(OC[C@@H]3CC(F)(F)C(=O)N3)ncc(C#CC3CCN(C(=O)OC(C)(C)C)CC3)c2cc1C(N)=O` [Compound I-54, tert-butyl (S)-4-((6-carbamoyl-1-((4,4-difluoro-5-oxopyrrolidin-2-yl)methoxy)-7-isopropoxyisoquinolin-4-yl)ethynyl)piperidine-1-carboxylate], the 50% inhibitory concentration (IC50) worked out at 0.113 µM in test [1], 2.97 µM in test [2], 2.75 µM in test [3] and 1.71 µM in test [4].

In the case of `CC(C)Oc1cc2c(OC[C@@H]3CC(F)(F)C(=O)N3)ncc(C#CC3CCNCC3)c2cc1C(N)=O` [Compound I-55, (S)-1-((4,4-difluoro-5-oxopyrrolidin-2-yl)methoxy)-7-isopropoxy-4-(piperidin-4-ylethynyl)isoquinoline-6-carboxamide], the IC50 in test [1] came out at 0.0035 µM; in test [2] it was 4 µM; in test [3], 1.2 µM; in test [4] it was 1.22 µM.

For `CC(C)Oc1cc2c(OC[C@@H]3CC(F)(F)C(=O)N3)ncc(C#CC3CCN(C)CC3)c2cc1C(N)=O` [Compound I-56, (S)-1-((4,4-difluoro-5-oxopyrrolidin-2-yl)methoxy)-7-isopropoxy-4-((1-methylpiperidin-4-yl)ethynyl)isoquinoline-6-carboxamide], the IC50 in test [1] is 0.0033 µM; in test [2] it was 0.422 µM; in test [3] it was 0.136 µM; in test [4], 0.0249 µM.

With `CC(C)Oc1cc2c(OC[C@@H]3CC(F)(F)C(=O)N3)ncc(C#CC3(O)CCN(C)CC3)c2cc1C(N)=O` [Compound I-57, (S)-1-((4,4-difluoro-5-oxopyrrolidin-2-yl)methoxy)-4-((4-hydroxy-1-methylpiperidin-4-yl)ethynyl)-7-isopropoxyisoquinoline-6-carboxamide], the IC50 worked out at 0.0045 µM in test [1], 7.39 µM in test [2], 0.468 µM in test [3] and 0.634 µM in test [4].

For the compound `CCO[C@H]1CC[C@H](C#Cc2cnc(OC[C@@H]3CC(F)(F)C(=O)N3)c3cc(OC(C)C)c(C(N)=O)cc23)CC1` [Compound I-58, 1-(((S)-4,4-difluoro-5-oxopyrrolidin-2-yl)methoxy)-4-(((1r,4S)-4-ethoxycyclohexyl)ethynyl)-7-isopropoxyisoquinoline-6-carboxamide], the IC50 in test [1] was found to be 0.729 µM; in test [2], 2960 µM; in test [3] it was 1.56 µM; in test [4] it was 0.0225 µM.

Take `CCO[C@H]1CC[C@@H](C#Cc2cnc(OC[C@@H]3CC(F)(F)C(=O)N3)c3cc(OC(C)C)c(C(N)=O)cc23)CC1` [Compound I-59, 1-(((S)-4,4-difluoro-5-oxopyrrolidin-2-yl)methoxy)-4-((cis-4-ethoxycyclohexyl)ethynyl)-7-isopropoxyisoquinoline-6-carboxamide]: the IC50 in test [1] was 0.0039 µM; in test [2], 0.0466 µM; in test [3], 0.0472 µM; in test [4], 0.032 µM.

Regarding `CC(C)Oc1cc2c(OC[C@@H]3CC(F)(F)C(=O)N3)ncc(C#C[C@H]3CC[C@](C)(O)CC3)c2cc1C(N)=O` [Compound I-60, 1-(((S)-4,4-difluoro-5-oxopyrrolidin-2-yl)methoxy)-4-(((1r,4S)-4-hydroxy-4-methylcyclohexyl)ethynyl)-7-isopropoxyisoquinoline-6-carboxamide], the IC50 in test [1] amounted to 0.0093 µM; in test [2], 0.0246 µM; in test [3], 0.0778 µM; in test [4], 0.0213 µM.

For `CC(C)Oc1cc2c(OC[C@@H]3CC(F)(F)C(=O)N3)ncc(C#C[C@H]3CC[C@@](C)(O)CC3)c2cc1C(N)=O` [Compound I-61, 1-(((S)-4,4-difluoro-5-oxopyrrolidin-2-yl)methoxy)-4-(((1s,4R)-4-hydroxy-4-methylcyclohexyl)ethynyl)-7-isopropoxyisoquinoline-6-carboxamide], the IC50 stood at 0.0088 µM in test [1], 0.102 µM in test [2], 0.0807 µM in test [3] and 0.013 µM in test [4].

With `CC(C)Oc1cc2c(OC[C@@H]3CC(F)(F)C(=O)N3)ncc(C#CC3CN(C(=O)OC(C)(C)C)C3)c2cc1C(N)=O` [Compound I-62, tert-butyl (S)-3-((6-carbamoyl-1-((4,4-difluoro-5-oxopyrrolidin-2-yl)methoxy)-7-isopropoxyisoquinolin-4-yl)ethynyl)azetidine-1-carboxylate], the IC50 was determined as 0.0193 µM in test [1], 0.0219 µM in test [2], 0.001 µM in test [3] and 0.0021 µM in test [4].

For `CC(C)Oc1cc2c(OC[C@@H]3CC(F)(F)C(=O)N3)ncc(C#CC3CNC3)c2cc1C(N)=O` [Compound I-63, (S)-4-(azetidin-3-ylethynyl)-1-((4,4-difluoro-5-oxopyrrolidin-2-yl)methoxy)-7-isopropoxyisoquinoline-6-carboxamide], the IC50 in test [1] was found to be 0.0028 µM; in test [2] it was 5.9 µM; in test [3], 1.21 µM; in test [4] it was 0.523 µM.

Take `COC1(OC)CC(C#Cc2cnc(OC[C@@H]3CC(F)(F)C(=O)N3)c3cc(OC(C)C)c(C(N)=O)cc23)C1` [Compound I-65, (S)-1-((4,4-difluoro-5-oxopyrrolidin-2-yl)methoxy)-4-((3,3-dimethoxycyclobutyl)ethynyl)-7-isopropoxyisoquinoline-6-carboxamide]: the concentration for half-maximal inhibition (IC50) in test [1] worked out at 0.0087 µM; in test [2], 0.0465 µM; in test [3], 0.0065 µM; in test [4] it was 0.029 µM.

For the compound `CC(C)Oc1cc2c(OC[C@@H]3CC(F)(F)C(=O)N3)ncc(-c3cnn(C4CC4)c3)c2cc1C(N)=O` [Compound I-67, (S)-4-(1-cyclopropyl-1H-pyrazol-4-yl)-1-((4,4-difluoro-5-oxopyrrolidin-2-yl)methoxy)-7isopropoxyisoquinoline-6-carboxamide], the concentration for half-maximal inhibition (IC50) in test [1] was 0.0063 µM; in test [2] it was 0.608 µM; in test [3], 0.0472 µM; in test [4], 0.593 µM.
